{
  "source": "patent US11169138B2",
  "about": "“Nanopores with internal protein adaptors” (priority 2015, dated 2021)",
  "key": {"N120D-AlkB-Fe^++": {"target": "T1, N120D-AlkB-Fe^++ (Escherichia coli, UniProt P05050, N120D)", "T1 construct": "additional alanine after the starting methionine (cloning residue, between Met1 and Leu2) (N); Strep-tag via glycine-serine-alanine linker (C); made in house; host or cells: pT7-SC1 plasmid; expression host not restated for the mutant", "T1 sequence (P05050 1-216 N120D)": "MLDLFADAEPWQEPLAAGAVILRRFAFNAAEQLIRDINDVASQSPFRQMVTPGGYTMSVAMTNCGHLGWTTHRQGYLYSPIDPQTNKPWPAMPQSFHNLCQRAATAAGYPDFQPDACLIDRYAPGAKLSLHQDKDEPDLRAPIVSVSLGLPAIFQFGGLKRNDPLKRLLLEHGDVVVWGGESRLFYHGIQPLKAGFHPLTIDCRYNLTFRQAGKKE", "test": "Ligand binding to N120D AlkB mutant confined inside ClyA-AS nanopore", "set-up": "species or system E. coli", "conditions": "7.2 mM 2-OG, N=4"}, "[1]": {"target": "T2, AlkB-Fe^++ (E. coli AlkB demethylase) (Escherichia coli, UniProt P05050)", "T2 construct": "made in house; host or cells: E. cloni EXPRESS BL21(DE3) E. coli", "T2 sequence (P05050 with tags, fused parts or gaps)": "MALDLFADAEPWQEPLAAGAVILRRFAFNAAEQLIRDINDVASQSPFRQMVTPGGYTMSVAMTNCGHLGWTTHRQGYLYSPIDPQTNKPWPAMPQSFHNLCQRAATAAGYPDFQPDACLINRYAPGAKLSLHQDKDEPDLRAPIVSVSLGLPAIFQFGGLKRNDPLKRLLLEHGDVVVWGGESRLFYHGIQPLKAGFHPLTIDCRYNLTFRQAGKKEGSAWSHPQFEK", "test": "Ligand binding to AlkB-Fe++ confined inside ClyA-AS nanopore, single-channel ionic current recording", "conditions": "for L2B ΔIRES % (ligand-induced current enhancement from L2): 150 mM NaCl, 15 mM Tris HCl pH 8.0, 28° C.; for L2B ΔIRES % (ligand-induced current enhancement from L2) / mean duration (toff) of ligand-induced events: ligand cis", "method": "(§1) The applied potential refers to the potential of the trans electrode. ClyA-AS nanopores were inserted into lipid bilayers from the cis compartment, which was connected to the ground electrode. The two compartments were separated by a 25 μm thick polytetrafluoroethylene film (Goodfellow Cambridge Limited) containing an orifice of ˜100 μm in diameter. The aperture was pretreated with ˜5 μl of 10% hexadecane in pentane and a bilayer was formed by the addition of ˜10 μL of 1,2-diphytanoyl-sn-glycero-3-phosphocholine (DPhPC) in pentane (10 mg/mL) to both electrophysiology chambers. Typically, the addition of 0.01-0.1 ng of oligomeric ClyA-AS to the cis compartment (0.5 mL) was sufficient to obtain a single channel. […] Electrical recordings were carried out in 150 mM NaCl, 15 mM Tris.HCl pH 8.0 (AlkB experiments) or 150 mM NaCl, 15 mM Tris.HCl pH 7.5 (DHFR experiments). The temperature of the recording chamber was maintained at 28° C. by water circulating through a metal case in direct contact with the bottom and sides of the chamber.\n(§2) Electrical signals from planar bilayer recordings were amplified using an Axopatch 200B patch clamp amplifier (Axon Instruments) and digitized with a Digidata 1440 A/D converter (Axon Instruments). Data were recorded by using the Clampex 10.4 software (Molecular Devices) and the subsequent analysis was carried out with the Clampfit software (Molecular Devices). Electrical recordings were performed in 150 mM NaCl, 15 mM Tris.HCl pH 8.0 (AlkB) or pH 7.5 (DHFR) by applying a 2 kHz low-pass Bessel filter and a 10 kHz sampling rate. For further analysis traces were filtered digitally with a Bessel (8-pole) low-pass filter with a 50 Hz cut-off. Residual current values (IRES%) were calculated from blocked pore current values (IB) and open pore current values (IO) as IRES %=100*IB/IO. IB and IO were determined from Gaussian fits to all point current histograms (0.05 pA bin size) for at least 15 individual protein blockades. ΔIRES % values were calculated from IRES % using propagation of errors.\n(§3) Current transitions from level 1 were analyzed with the “single-channel search” function in Clampfit. The detection threshold to collect the ligand-induced events for AlkB was set to 4 pA and events shorter than 10 ms were ignored. […] The resulting event dwell times (toff) and the time between events (ton) were binned together as cumulative distributions and fitted to a single exponential to retrieve the ligand-induced lifetimes (τoff) and the ligand-induced event frequencies (f=1/τon). The process of event collection was monitored manually. For AlkB, final values of τon and τoff were based on average values derived from at least 3 single channel experiments at each concentration. Each experiment analysed more than 8 AlkB blockades. At the low ligand concentrations (0.2 mM) about 100 ligand-binding events were measured. Otherwise more than 150 events were collected. […] Subsequently, the ton values were binned together as cumulative distributions and fitted to a single exponential fit to retrieve characteristic τon values. The values for koff represented in FIG. 2b and FIG. 4b were determined by taking the average±standard deviations of 1/toff of at least 3 single channel experiments. The values of the association rate constants (kon) were determined from the slope of the linear regression curves calculated from the dependency of the event frequencies (f=1/τon) on the ligand concentration (OriginLab, FIGS. 2b and 4b). Graphs were made with Origin (OriginLab Corporation) or Clampfit software (Molecular Devices).\n9, 872-877; Bleijlevens, B. et al. (2012) Biochem. 2012, 51, 3334-3341]."}, "DHFRtag:MTX": {"target": "T3, DHFRtag:MTX (Escherichia coli, UniProt P0ABQ4, C152S/C85A)", "T3 construct": "Met-Ala-Ser-Ala (N); made in house; host or cells: E. cloni EXPRESS BL21(DE3) E. coli", "T3 sequence (P0ABQ4 1-159 C85A/C152S)": "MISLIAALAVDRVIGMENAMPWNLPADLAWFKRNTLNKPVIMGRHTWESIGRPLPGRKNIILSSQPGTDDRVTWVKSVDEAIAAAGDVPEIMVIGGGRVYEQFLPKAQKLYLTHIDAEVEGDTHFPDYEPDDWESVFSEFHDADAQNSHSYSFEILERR", "test": "Ligand binding to DHFRtag:MTX complex confined inside ClyA-AS nanopore, single-channel recording", "set-up": "species or system E. coli", "conditions": "for L2B ΔIRES %: from L2", "method": "as §1, §2, §3"}, "DHFR": {"target": "T4, DHFR (Escherichia coli, UniProt P0ABQ4, C152S/C85A)", "T4 construct": "Met-Ala-Ser-Ala (N); made in house; host or cells: E. cloni EXPRESS BL21(DE3) E. coli", "T4 sequence (P0ABQ4 1-159 C85A/C152S)": "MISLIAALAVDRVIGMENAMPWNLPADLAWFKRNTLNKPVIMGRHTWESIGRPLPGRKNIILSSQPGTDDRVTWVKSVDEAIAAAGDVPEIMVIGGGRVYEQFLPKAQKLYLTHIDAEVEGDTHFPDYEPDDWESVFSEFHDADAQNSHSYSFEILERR", "test": "Ligand effects on DHFR (untagged construct) blockades of ClyA-AS nanopore", "format": "binding, E. coli", "conditions": "20 μM NADPH cis after 400 nM MTX, −90 mV"}, "[2]": {"conditions": "−90 mV, pH 7.5, 28° C., ligand trans"}},
  "note": "“Also recorded” adds a separate entry of the source.",
  "data": [
    {"compound": "O=C(O)CCC(=O)C(=O)O", "note": "[2-OG, 2-oxoglutarate]", "values": [
      {"measurement": "current transitions in N120D-AlkB-Fe++ blockades", "setting": "N120D-AlkB-Fe^++", "result": "did not induce current transitions"},
      {"measurement": "L2B ΔIRES % (ligand-induced current enhancement from L2)", "setting": "[1]; −60 mV", "result": "+1.7 ± 1.2%"},
      {"measurement": "mean duration (toff) of ligand-induced events", "setting": "[1]; −60 mV", "result": "1.7 ± 0.5", "unit": "s"},
      {"measurement": "koff −60 mV", "setting": "[1]; −60 mV, pH 8.0, 28° C.", "result": "0.66 ± 0.33", "unit": "s⁻¹"},
      {"measurement": "kon −60 mV", "setting": "[1]; −60 mV, pH 8.0, 28° C., slope of event frequency vs concentration", "result": "1.8 ± 0.3 × 10^3 s^−1 M^−1"}
    ]},
    {"compound": "O=C(O)CNC(=O)C(=O)O", "note": "[N-OG, N-oxalylglycine]", "values": [
      {"measurement": "koff", "setting": "[1]; pH 8, read-out: koff −60 mV", "result": "0.57 ± 0.1", "unit": "s⁻¹"},
      {"measurement": "kon", "setting": "[1]; pH 8, read-out: kon −60 mV", "result": "1200 ± 300000", "unit": "M⁻¹ s⁻¹"},
      {"measurement": "L2B ΔIRES % (ligand-induced current enhancement from L2)", "setting": "[1]; −60 mV", "result": "+1.7 ± 1.0%"},
      {"measurement": "mean duration (toff) of ligand-induced events", "setting": "[1]; −60 mV", "result": "1.8 ± 0.4", "unit": "s"}
    ]},
    {"compound": "NC(=O)c1ccc[n+]([C@@H]2O[C@H](COP(=O)([O-])OP(=O)(O)OC[C@H]3O[C@@H](n4cnc5c(N)ncnc54)[C@H](OP(=O)(O)O)[C@@H]3O)[C@@H](O)[C@H]2O)c1", "note": "[NADP+]", "values": [
      {"measurement": "DHFRtag:MTX blockades not responding to the ligand", "setting": "DHFRtag:MTX; NADP+ added in trans", "result": "Approximately 45%"},
      {"measurement": "τM:N+ (dwell of NADP+ events)", "setting": "DHFRtag:MTX; −90 mV, NADP+ trans", "result": "102 ± 11", "unit": "ms"},
      {"measurement": "koff −90 mV", "setting": "DHFRtag:MTX; −90 mV, pH 7.5, 28° C.", "result": "10 ± 1", "unit": "s⁻¹"},
      {"measurement": "kon −90 mV", "setting": "DHFRtag:MTX; −90 mV, pH 7.5, 28° C.", "result": "2.1 ± 0.3 × 10^6 s^−1 M^−1"},
      {"measurement": "L2B ΔIRES %", "setting": "DHFRtag:MTX; [2]", "result": "+4.7 ± 0.9%"}
    ]},
    {"compound": "NC(=O)C1=CN([C@@H]2O[C@H](COP(=O)(O)OP(=O)(O)OC[C@H]3O[C@@H](n4cnc5c(N)ncnc54)[C@H](OP(=O)(O)O)[C@@H]3O)[C@@H](O)[C@H]2O)C=CC1", "note": "[NADPH]", "values": [
      {"measurement": "effect of NADPH on DHFR blockades in presence of MTX", "setting": "DHFR", "result": "abolished; also recorded: nearly total elimination of the DHFR blockades"},
      {"measurement": "enhancement of residual ionic current on NADPH binding", "setting": "DHFRtag:MTX; DHFR10+/4+/tag:MTX complexes, −90 mV", "result": "~4", "unit": "pA"},
      {"measurement": "DHFRtag:MTX blockades with \"long\" NADPH events", "setting": "DHFRtag:MTX; NADPH trans", "result": "~55", "unit": "%"},
      {"measurement": "DHFRtag:MTX blockades with \"short\" NADPH events", "setting": "DHFRtag:MTX; NADPH trans", "result": "Approximately 45%"},
      {"measurement": "kon, \"long\" NADPH events", "setting": "DHFRtag:MTX; −90 mV", "result": "4.8e+06 ± 1.2e+06", "unit": "M⁻¹ s⁻¹"},
      {"measurement": "kon, \"short\" NADPH events", "setting": "DHFRtag:MTX; −90 mV", "result": "5.8e+06 ± 1.2e+06", "unit": "M⁻¹ s⁻¹"},
      {"measurement": "ΔIRES %, \"long\" NADPH events", "setting": "DHFRtag:MTX; −90 mV", "result": "2.7±0.7", "unit": "%"},
      {"measurement": "ΔIRES %, \"short\" NADPH events", "setting": "DHFRtag:MTX; −90 mV", "result": "2.2±0.9", "unit": "%"},
      {"measurement": "lifetime of \"long\" NADPH binding events", "setting": "DHFRtag:MTX; −90 mV, NADPH trans", "result": "> 3", "unit": "s"},
      {"measurement": "lifetime of \"short\" NADPH binding events", "setting": "DHFRtag:MTX; −90 mV, NADPH trans", "result": "38.5 ± 0.8", "unit": "ms"},
      {"measurement": "kon −90 mV", "setting": "DHFRtag:MTX; −90 mV, pH 7.5, 28° C.", "result": "4.8 ± 1.2 × 10^6 s^−1 M^−1"},
      {"measurement": "L2B ΔIRES % (first NADPH column as printed)", "setting": "DHFRtag:MTX; [2]", "result": "+2.7 ± 0.7%"},
      {"measurement": "L1B ΔIRES %", "setting": "DHFRtag:MTX; −90 mV, pH 7.5, 28° C., ligand trans, from L1", "result": "+2.7±0.7%"},
      {"measurement": "L2B ΔIRES %", "setting": "DHFRtag:MTX; [2]", "result": "+5.4 ± 1.0%"}
    ]}
  ]
}
